Experimental findings from PubChem BioAssay (NCI) are described below.

Assay in all cases: NCI anticancer screen, dose series, 48 h
Assay [1] relates to A549 NSCLC.
Assay [2] deals with HCC-2998 colon.
In assay [3] the test system is MALME-3M melanoma.
For assay [4], the system named is MCF7 breast.
Assay [5] deals with NCI-H226 lung.
Assay [6] relates to OVCAR-3 ovarian.
Assay [7] deals with OVCAR-4 ovarian.
The subject of assay [8] is OVCAR-5 ovarian.
Assay [9] deals with SF-539 CNS.
Assay [10] deals with SK-MEL-28 melanoma.
The subject of assay [11] is SW-620 colon.
Assay [12] deals with RXF 393 renal.

The structures appear in SMILES notation.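 Briefly, cells in 96-well plates were exposed to five compound concentrations for 48 h, and endpoints were estimated by linear interpolation. The concentration for full growth arrest is given as TGI.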 Where only a bound is given, the exact number is not on record here.

`CNn1c(C)n[nH]c1=O`: the TGI in assay [1], in [2], in assay [3], in assay [4], in assay [5] and in [6] was above 100 µM in each case. The TGI in [7], in [8], in assay [9], in assay [10] and in [11] was above 100 µM each time.
With `O=C(O)c1ccccc1C(=O)Nn1cnnc1`, the TGI in [1], in assay [2], in assay [4], in assay [6], in assay [7] and in assay [8] was above 100 µM in each case. Moreover, the TGI in assay [12], in assay [9], in assay [10] and in assay [11] was above 100 µM in each case.
Consider `[O-][n+]1onc(-c2ccccc2)c1CN1CCOCC1`, for which the TGI in assay [1], in assay [2], in [3], in [4], in assay [5] and in assay [6] was above 100 µM in each case. Also, the TGI in [7], in assay [8], in assay [12], in assay [9], in assay [10] and in assay [11] was above 100 µM each time.
With `OC(C/C(=N\N1CCCCC1)c1cccs1)(C(F)(F)F)C(F)(F)F`, the TGI in assay [1], in assay [2], in assay [3], in assay [4], in assay [5] and in [6] was above 10 µM throughout. In addition, the TGI in assay [7], in assay [12], in assay [9], in [10] and in assay [11] was above 10 µM throughout.
As for `COC(=O)C(=O)C(C(=O)C(=O)Nc1ccccc1C(C)=O)c1nc2ccc(C(=O)c3ccccc3)cc2[nH]c1=O` (configuration not stated), the TGI in assay [1], in assay [2], in assay [3], in assay [4], in assay [5] and in assay [6] was above 100 µM each time. Also, the TGI in assay [7], in [8], in assay [12] and in assay [9] was above 100 µM each time.
Take `NC(N)=N/N=C/c1c(-c2ccc([N+](=O)[O-])cc2)nc2n1CCS2`: the TGI amounted to 36.2 µM in [1]; 19.7 µM in assay [2]; 36.6 µM in assay [3]; 30.3 µM in [4]; 42.9 µM in assay [5]; 41.3 µM in assay [6]. For the same compound, the TGI is 27.7 µM in [7]; 28 µM in [8]; 23.4 µM in [12]; 32.3 µM in [9]; 34.8 µM in assay [10]; 7.33 µM in assay [11].
On to `C=C1CC(C)(COc2ccc3ccc(=O)oc3c2)OC1=O` (configuration not stated), for which the TGI in [1] is 30.5 µM; in assay [2], 6.96 µM; in assay [3], 6.31 µM; in [4], 5.65 µM; in assay [5], 27.3 µM; in assay [6], 17.2 µM. The TGI in assay [7] stood at 11.1 µM; in assay [8] it was 22.1 µM; in [9], 10.2 µM; in assay [10], 11.2 µM; in assay [11], 4.79 µM.
Regarding `COc1ccc(NC(C)=O)cc1C1CCC(=O)N1` (configuration not stated), the TGI in assay [1], in assay [2], in assay [3], in [4], in assay [5] and in assay [6] was above 100 µM each time. Further, the TGI in [7], in assay [8], in assay [9], in assay [10] and in [11] was above 100 µM throughout.
`N#Cc1c(Cl)c2ccccc2n2c1nc1ccccc12`: the TGI in assay [1] is above 100 µM; in assay [2], 40.1 µM; in [4], above 100 µM; in assay [5], 59 µM; in [6], above 100 µM; in assay [7], 84 µM. Further, the TGI in assay [8] was above 100 µM; in assay [12], 49.3 µM; in assay [9], 42.8 µM; in assay [10] it was above 100 µM; in assay [11], above 100 µM.
For the compound `CC/C=C/C(=O)CC(O)(C(F)(F)F)C(F)(F)F`, the TGI in assay [1], in assay [2], in assay [3], in assay [4], in [5] and in assay [7] was above 100 µM in each case. For the same compound, the TGI in assay [8], in [12], in assay [9], in assay [10] and in [11] was above 100 µM in each case.
As for `COC(=O)C1=C(\c2ccccc2)c2ccccc2C(=O)N(C2CCCCC2)/C=C\1`, the TGI in [1] is above 100 µM; in [2] it was 62 µM; in [3], 68.6 µM; in assay [4], 77.4 µM; in [5], 81.5 µM; in assay [6], 79.4 µM. Further, the TGI in assay [7] was above 100 µM; in [8], above 100 µM; in [9], 55.9 µM; in assay [10], 39.8 µM; in assay [11], above 100 µM.
With `N#Cc1c(Cl)/c(=C/O)c(=O)n2c1nc1ccccc12`, the TGI in assay [1] is above 100 µM; in assay [2] it was above 100 µM; in assay [3] it was above 100 µM; in [4] it was above 100 µM; in assay [5], 52 µM; in assay [6], 99.5 µM. In addition, the TGI was above 100 µM in assay [7]; 91.7 µM in assay [8]; above 100 µM in assay [9]; above 100 µM in assay [10]; above 100 µM in [11].
